Experimental data published in patent publication EP2918282A1, “Pharmaceutical composition for the treatment of virus diseases, such as flu” (OOO "CytoNIR", priority 2014, dated 2015).

System: Grippevirus A/Vladivostok/2/09 (H1N1)
Experiment: Survival of mice infected with a lethal dose of influenza virus, peroral treatment for 5 days
Assay type: in vivo, Mäuse
Settings: virus strain resistant to Oseltamyvir; 30 mg/kg
Source text: Die Wirksamkeit des Mittels wurde an einem Modell der Überlebensfähigkeit von angesteckten Versuchstieren geprüft. Die Versuchstiere wurden mit einer tödlichen Dosis des Grippevirus A/Vladivostok/2/09 (H1N1) angesteckt. Während der Forschung wurde das erfindungsgemäße Mittel 5 Tage lang peroral verabreicht.
Als Versuchstiere wurden weiße männliche Auszucht-Mäuse mit einem Körpergewicht von 16 - 18 g aus der Aufzuchtstation Rappolovo der Russischen Akademie der medizinischen Wissenschaften verwendet. Vor der Prüfung wurden die Versuchstiere einer Quarantäne in einem Vivarium im Laufe einer Woche unterzogen. Die Versuchstiere wurden unter genormten Klima-Bedingungen mit ausgewogener Fütterung gehalten. Jede Gruppe enthielt je 30 Versuchstiere.
Um eine versuchsmäßige Grippe-Infektion zu simulieren, wurde ein bestimmter Virusstamm eingesetzt. Die Versuchstiere wurden mit dem A/Vladivostok/2/09 (H1N1)-Virus in Mengen von 1 und 10 DL50 intranasal angesteckt.
Die Behandlung der angesteckten Mäuse wurde 24 Stunden nach der Ansteckung begonnen. Die Präparate wurden intragastrisch mittels einer Sonde verabreicht. Bei diesen Präparaten handelte es sich um eine Lösung in einer physiologischen Kochsalzlösung. Die Dosis des Arzneimittels wurde pro ein kg des Körpergewichts des Tieres berechnet. Die Behandlung wurde im Laufe von 5 Tagen vorgenommen. […]

## CCOC(=O)C1=C[C@@H](OC(CC)CC)[C@H](NC(C)=O)[C@@H](N)C1 [Tamiflu, Oseltamyvir]
  Schutzsteigerung: keine zuverlässige Schutzsteigerung
